Compared with O=C(Nc1ccccc1)OCCCCCCCCCCC=C(F)F, CCCCCCCCCCCc1[nH]c2cc(C(=O)OC)ccc2c1C=O is higher in melting point: 54 to 56 °C for the first, 147 to 149 °C for the second.

First: CN(C)C(=S)Oc1ccc(C(=O)c2ccc([N+](=O)[O-])cc2)cc1
Second: CCOc1ccc(C(=O)Nc2ccccc2)cc1[N+](=O)[O-]
The melting point of the first is lower: 168 °C for the first, 189 to 190 °C for the second.

Compared with CCOC(=O)C(C#N)=Cc1c(Cl)n(Cc2cccc(Cl)c2)c2ccccc12, CCOC(=O)c1cccc(CN2CCN(c3nc(C)c(C(=O)NCc4ccccc4)s3)C2=O)c1 is lower in melting point: 130 to 132 °C for the first, 118 to 120 °C for the second.

First: NC(=O)N1CC(Oc2ccc(Br)cc2)C1
Second: CCOC(=O)c1cc2n(c1)CNc1ccc(Br)cc1-2
The melting point of the first is higher: 193 to 194 °C for the first, 169 to 171 °C for the second.

First: CCOc1ccc(N(c2ccccc2)C2(c3ccc(N(CC)Cc4ccccc4)cc3)OC(=O)c3cc(N(C)C)ccc32)cc1 (stereo unspecified)
Second: CCOP(OCC)c1ccccc1P(c1cccc2ccccc12)c1cccc2ccccc12
The melting point of the first is higher: 148 to 152 °C for the first, 94 to 95 °C for the second.

Compared with COc1ccc(C2=NN(CC(=O)c3ccccc3OC)C(=O)[C@H]3CCCC[C@@H]23)cc1OC (relative stereo), COc1ccc(-c2csc(Nc3cc(C)ccn3)n2)cc1OC is higher in melting point: 93 to 96 °C for the first, 211 to 213 °C for the second.

C=Cc1cc(O)cc2nc(-c3ccc(O)c(F)c3)oc12 and COc1cc2ncc(C#N)c(Nc3ccc(O)cc3O)c2cc1OC cannot be ordered by melting point: 249 to 251 °C for the first, greater than 250 °C for the second.

First: COc1cccc(NC(=O)NCC(=O)N2[C@@H](C(=O)OC(C)(C)C)CC[C@H]2c2ccccc2)c1 (racemic)
Second: COc1ccc(-n2nc(C(C)(C)C)cc2NC(=O)c2nccc3cc(Oc4cc(NC(C)=O)ncn4)ccc23)cc1
The melting point of the first is higher: 174 °C for the first, 156 °C for the second.

Compared with CCOC(=O)C1=C(N)NC2=C(C(=O)CCC2)C1c1cccc2ccccc12 (stereo unspecified), COc1ccccc1-c1c(N)c2ccc(Cl)cc2[nH]c1=O is higher in melting point: 279 °C for the first, 284 to 286 °C for the second.

First: N#Cc1cccc(C(=O)Nc2c(Cl)cncc2Cl)c1
Second: CC(=O)OC(OC(C)=O)c1ccc2occ(C#N)c(=O)c2c1
The melting point of the first is higher: 242 to 244 °C for the first, 185 to 186 °C for the second.

First: COc1nc(C(F)(F)F)cc(=O)n1-c1ccc(Cl)c(C(=O)O)c1
Second: Cc1cc(-c2ccc(C(F)(F)F)cc2)nc(-c2ccc(C(=O)O)cc2)n1
The melting point of the first is lower: 265 to 268 °C for the first, 272 to 275 °C for the second.

First: N#Cc1c(N2CCCCC2)cc(-c2ccccc2)c2c1Cc1ccccc1-2
Second: c1ccc(Cn2cnc(-c3cnc(-c4ccccc4)nc3)c2)cc1
The melting point of the first is lower: 140 to 141 °C for the first, 195 °C for the second.

First: CCCCCCCCCCCCCCCCCCNC(=O)OCC(COC)CN(C(C)=O)S(=O)(=O)CCCI (stereo unspecified)
Second: CCCCCCCCCCC#CC#CCCCCCCCCC(=O)O
The melting point of the first is higher: 71 to 72 °C for the first, 57 to 58 °C for the second.

First: Cc1ccc2c(Br)csc2c1
Second: Cc1ccccc1NC1=CC(=O)NCC1
The melting point of the first is lower: 51 to 53 °C for the first, 155 to 158 °C for the second.

First: Cn1c(OC2CCOC2)nn(C(=O)NS(=O)(=O)c2ccccc2OC(F)(F)F)c1=O (stereo unspecified)
Second: CC(Oc1ncn(-c2ccc(OC(F)(F)F)cc2)n1)C(=O)O (stereo unspecified)
The melting point of the first is lower: 184 °C for the first, 200 to 203 °C for the second.

Compared with O=C(Nc1ccc(C(=O)N2Cc3cccn3Cc3ccccc32)cc1)c1ccccc1C(F)(F)F, O=C(O)CCC(=NOCc1ccc(OCc2cc(-c3ccccc3)no2)cc1)c1ccccc1 is lower in melting point: 226 to 228 °C for the first, 96 to 97 °C for the second.

Compared with COc1ccc(S(=O)(=O)N(C)CP(=O)(O)O)cc1N, COc1cc(C)cc(OC)c1N(C)C(C)=O is lower in melting point: 218 to 220 °C for the first, 160 to 161 °C for the second.

Compared with CN1CCN(c2nc(-c3ccc(Cl)cc3)c(CCC(=O)O)o2)CC1, N=C(N)N1CC(c2ccccc2)C(c2ccc(Cl)cc2)=N1 (stereo unspecified) is higher in melting point: 157 to 160 °C for the first, 187 to 189 °C for the second.

First: O=C(c1cccs1)c1cnn2c(-c3cccc(-c4nnn(CCN5CCOCC5)n4)c3)ccnc12
Second: CS(=O)(=O)Nc1ccncc1-c1ccc2cnc(Nc3ccc(N4CCOCC4)cc3)nn12
The melting point of the first is lower: 103 °C for the first, 178 to 180 °C for the second.

First: Cn1nc(-c2cnc3[nH]cc(C(=O)NCC(C)(C)C)c3n2)c2ccc(F)cc21
Second: COc1cc(OC)nc(NC(=O)NS(=O)(=O)Nc2ccc(F)cc2C(=O)C2CC2)n1
The melting point of the first is higher: 294 to 295 °C for the first, 76 to 78 °C for the second.

Compared with c1ccc(-n2nnc3c4ccccc4c(OCc4ccccn4)nc32)cc1, COc1ccc2cc(C(=O)NC3N=C(c4ccccc4)c4ccccc4-n4c(C)nnc43)[nH]c2c1 (stereo unspecified) is higher in melting point: 147 to 150 °C for the first, 160 to 170 °C for the second.

First: CCN(C)C(=O)[C@H]1O[C@@H](n2cnc3c(N)ncnc32)[C@H](O)[C@@H]1O
Second: Cc1ccc(OCc2nc(N)c3nccnc3n2)cc1
The melting point of the first is lower: 86 to 90 °C for the first, 225 to 227 °C for the second.

First: CCOC(=O)c1cc2c(n1CCN)CCCC2
Second: CCOC(=O)C1=Cc2cc(-c3ccc(CC)cc3)ccc2OCC1
The melting point of the first is higher: 102 to 104 °C for the first, 81 to 83 °C for the second.

First: CC1(C)CC(=C2CC(C)(C)NC(C)(C)C2)CC(C)(C)N1
Second: CC1(C)CC(N2C(=O)C=CC2=O)CC(C)(C)N1
The melting point of the first is higher: 144 to 145 °C for the first, 104 to 111 °C for the second.

First: COC(=O)CC1Oc2ccccc2NC1=O (stereo unspecified)
Second: CC(C)=CCON1C(=O)c2ccccc2C1=O
The melting point of the first is higher: 140 °C for the first, 97 to 98 °C for the second.

First: CCC(=O)C(CCCCCCOc1ccc(OCc2ccccc2)cc1)C(=O)CC
Second: N#CCCCCCCCCn1nnc(-c2ccccc2)c1-c1ccccc1
The melting point of the first is higher: 82 to 84 °C for the first, 77 to 78 °C for the second.

Compared with O=C(O)CC1(CC(O)=NO)CCCC1, O=C(CCCN1CCC2(CC1)OC(=O)c1ccccc12)c1ccc(F)cc1 is higher in melting point: 70 to 74 °C for the first, 183 to 184 °C for the second.

Compared with CN1CCC(c2n[nH]c3ccc(F)cc23)CC1, CCn1c(=O)n(O)c(=O)c2cc(F)c(N3CCOCC3)cc21 is lower in melting point: 202 to 204 °C for the first, 162 to 163 °C for the second.

First: COc1ccc(S(=O)(=O)N2CCc3cccc(-c4ccc(F)nc4)c32)cc1
Second: O=C(O)CN1C(=O)C(=Cc2ccc(OCc3ccc(OC(F)(F)F)cc3)c(OCc3ccccc3)c2)SC1=S
The melting point of the first is lower: 140 to 142 °C for the first, 195 to 199 °C for the second.

First: COc1cc(I)c(C(=O)OC(C)COC(=O)c2ccc3c(c2I)OCO3)cc1OC (stereo unspecified)
Second: COc1cc(COc2cc3ncnc(Nc4ccc(Cl)cc4F)c3cc2OC)ccn1
The melting point of the first is lower: 131 to 133 °C for the first, 202 to 204 °C for the second.

First: CC1(CN=[N+]=[N-])SC2C(NC(=O)Cc3ccccc3)C(=O)N2C1C(=O)OCC(Cl)(Cl)Cl (stereo unspecified)
Second: CC(Cc1cccnc1)(NC(=O)OC1C2CC3CC(C2)CC1C3)C(=O)NCCc1ccccc1 (stereo unspecified)
The melting point of the first is lower: 105 to 106 °C for the first, 167 to 169 °C for the second.

First: CCOC(=O)C(=O)c1ccc(C)[nH]1
Second: COC(=O)c1cccc2c(CCl)c(C)sc12
The melting point of the first is lower: 72 to 74 °C for the first, 125 to 126 °C for the second.

Compared with CCOc1cnc(-c2ccc(O)cc2)nc1, Cc1nc(-c2ccc(C(F)(F)F)cc2)ccc1CO is lower in melting point: 202 °C for the first, 76 to 78 °C for the second.

Compared with COc1cc(COc2nn(-c3ccccc3)cc2/C=C/c2coc(C(C)(C)C)n2)ccc1OCc1nc(-c2ccc(CC(=O)O)cc2)oc1C, CCC=Cc1ncc(/C=C(\Cc2cccs2)c2nnn[nH]2)n1Cc1ccccc1Cl is higher in melting point: 104 to 106 °C for the first, 182 to 184 °C for the second.

First: CN(CCSCc1n[nH]c(CSCCN(C)C(N)=S)n1)C(N)=S
Second: CCCN(CCC)C(=O)c1cc(C(=O)N[C@@H](Cc2cc(F)cc(F)c2)[C@H](O)CNC2(c3cc(CN(C)C)ccn3)CC2)cc(-c2ncco2)c1
The melting point of the first is higher: 133 to 135 °C for the first, 70 to 72 °C for the second.

For Cc1ccc(Cl)cc1NC(=S)Nc1ccn(C)n1, the melting point was 217 to 218 °C.
